In PMC10982999, “Structure-Guided Design and Optimization of Covalent VHL-Targeted Sulfonyl Fluoride PROTACs” (Journal of Medicinal Chemistry, 2024):

Columns and labels:
physchem = details: buffer
Experimental: Table S1. Sulfonyl fluoride warhead stability for VHL-SF1 and VHL-SF2 was determined in
(1 picture or pasted object on this page, not shown here)

[1] = target: T1, VCB and FAM-conjugated HIF1α-derived peptide interaction (Homo sapiens, UniProt P40337); test: Competitive fluorescence polarization (FP) assay, VCB / FAM-conjugated HIF1α-derived peptide; format: binding; details: concentrations up to 100 μM, 2 h pre-incubation with VCB
T1 construct: human VHL (UniPort entry P40337, residues 1 -213); 6xHis followed by TEV site (N, cleaved yes); made in house; host or cells: E. coli One Shot BL21(DE3)
Experimental: We next focused on developing a second generation covalent VHL binder with enhanced potency and occupancy.
Figure 2 (A) Structure of VHL-SF2. […] (E) Competition pull-down assay from live cells between VHL-SF2-Biotin and VHL-SF2. HEK293T cells were pretreated with DMSO or varying concentrations of VHL-SF2 for 2 h at 37 °C. The cells were lysed and treated with DMSO or VHL-SF2-Biotin (50 μM) for 2 h at room temperature. A pull-down with streptavidin beads was conducted, after which the protein was resolved on SDS/PAGE. VHL and loading control GAPDH levels were visualized by Western blotting.
Figure S3. (A) Gel-based VHL labelling of VHL-SF1-Biotin, and (B) VHL-SF2-Biotin. VCB protein was pre-treated with DMSO, VHL-SF1-Biotin or VHL-SF2-Biotin for 2 h at room temperature, after which protein was resolved on SDS -PAGE and visualised by Neutravidin […]
Figure S4. Dose-response of VHL-SF1 following a 2 h pre-incubation in the presence of VCB and FAM-conjugated HIF1α-derived peptide, assessed by fluorescence polarization. Data […]
Figure S5. (A) VCB was incubated with DMSO for 24 h and subjected to intact-protein LC-MS (VHL: 24784 Da). […]
Fluorescence polarization assay protocol […]
well plate and the plate was shaken for 1 min, before reading fluorescence polarization on a Perkin Elmer Envision 2101 plate reader (excitation 486 nm, emission 535 nm). […]

[2] = target: T2, recombinant human VCB (VHL protein with elongin C and elongin B) (Homo sapiens, UniProt P40337); test: Gel-based streptavidin shift assay (anti-VHL Western blot); format: binding; details: 10 μM probe, 2 h incubation at room temperature
T2 construct: human VHL (UniPort entry P40337, residues 1 -213); 6xHis followed by TEV site (N, cleaved yes); made in house; host or cells: E. coli One Shot BL21(DE3)
Experimental: To assess the ability of VHL-SF1 to covalently modify VHL, we initially developed a streptavidin shift assay in which we exposed recombinant human VCB, a stable complex of VHL protein with elongin C and elongin B, to VHL-SF1-Biotin. VHL biotinylation could then be directly quantified by the apparent shift in molecular weight observed when the sample was mixed with streptavidin and analyzed by an anti-VHL Western blot (Figure S2).[20] Through this assay, we concluded that 10 μM VHL-SF1-Biotin modified 32% VHL following 2 h of incubation at room temperature, which was further confirmed to be concentration-dependent with respect to the probe (Figure S3).
Figure S2. (A) Structure of VHL-SF-1-Biotin. (B) Structure of VHL-SF-2-Biotin. (C - E) Gel-based streptavidin shift assay of VHL-SF1-Biotin, and VHL-SF2-Biotin. VCB protein was pre-treated with DMSO, VHL-SF1-Biotin (10 μM) or VHL-SF2-Biotin (10 μM) for 2 h at room temperature prior to addition of streptavidin (10 μM, 10 min) at room temperature, after which protein was resolved on SDS-PAGE and visualised by VHL western blotting. (F) Quantification of VHL levels from western blot.
Docking analysis with Molecular Operating Environment (MOE)
Molecular modelling studies were conducted using the software Molecular Operating Environment 2019.01. […]

Row | Structure (SMILES) | half-life (physchem; pH 6) [h] | half-life (physchem; pH 7.5) [h] | displacement of fluorophore-labeled HIF1α peptide [1] | VHL modified (VHL biotinylation, streptavidin shift) [2] [%]
1 | CC(=O)N[C@H](C(=O)N1C[C@H](S(=O)(=O)F)C[C@H]1C(=O)NCc1ccc(-c2scnc2C)cc1)C(C)(C)C [VHL-SF1, (3R,5S)-1-((S)-2-Acetamido-3,3-dimethylbutanoyl)-5-((4-(4-methylthiazol-5-yl)benzyl)carbamoyl)-pyrrolidine-3-sulfonyl fluoride] | 15 | 0.55 | unable to displace | 
2 | Cc1cc([C@H](C(=O)N2C[C@H](S(=O)(=O)F)C[C@H]2C(=O)N[C@@H](CC(=O)NCCOCCOCCOCCNC(=O)CCCC[C@H]2SC[C@@H]3NC(=O)N[C@@H]32)c2ccc(-c3scnc3C)cc2)C(C)C)on1 [VHL-SF2-Biotin, (3R,5S)-1-((R)-3-Methyl-2-(3-methylisoxazol-5-yl)butanoyl)-5-(((S)-1-(4-(4-methylthiazol-5-yl)phenyl)-3,17-dioxo-21-((3aS,4R,6aR)-2-oxohexahydro-1H-thieno[3,4-d]imidazole-4-yl)-7,10,13-trioxa-4,16-diazahenicosyl)carbamoyl)pyrrolidine-3-sulfonyl fluoride] |  |  |  | 44
